Drawing on patent US20250257059A1, “PROTEIN TYROSINE PHOSPHATASE INHIBITORS AND USES THEREOF” (Nerio Therapeutics, Inc., priority 2022, published 2025), this text covers IC50 for 28 compounds.

The target in test [1] is full-length human PTPN2 (TC45) (1-387) (Homo sapiens (Human), UniProt P17706). The test can be described thus: Enzymatic assay used to determine potency of PTPN2 inhibitors (full length PTPN2 DiFMUP assay). In kind it is biochemical. As to conditions: 0.5 nM PTPN2, 100 μM DiFMUP, 30 min at room temperature.
full-length human PTPN2 (TC45) (1-387), sequence (P17706 other isoform, or with tags, fused parts or gaps): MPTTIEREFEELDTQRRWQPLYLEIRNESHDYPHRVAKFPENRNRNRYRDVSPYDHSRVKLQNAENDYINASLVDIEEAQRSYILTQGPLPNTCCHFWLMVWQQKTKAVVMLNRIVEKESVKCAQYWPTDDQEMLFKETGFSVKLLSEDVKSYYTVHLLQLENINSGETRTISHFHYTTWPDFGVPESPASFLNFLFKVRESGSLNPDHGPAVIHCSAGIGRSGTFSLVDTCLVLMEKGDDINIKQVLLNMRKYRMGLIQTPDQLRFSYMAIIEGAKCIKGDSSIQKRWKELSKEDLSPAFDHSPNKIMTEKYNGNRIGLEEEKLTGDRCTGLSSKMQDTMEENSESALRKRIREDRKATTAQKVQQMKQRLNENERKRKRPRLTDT
Test [2] concerns murine B16F10 melanoma cell line. The test can be described thus: B16F10 IFNγ-induced cellular growth inhibition assay (xCELLigence RTCA). The class given is cell-based. As to conditions: B16F10 cells, 1 ng/mL mouse IFNγ, AUC of growth curve, read-out: B16 IFNγ Mediated Growth Inhibition Assay: AVG IC50.

Each structure is given as a SMILES string. Like-named read-outs stand apart in the source and are kept apart here.

The IC50 is the point on the concentration scale where inhibition reaches its midpoint. On to `O=C1CN(c2c(O)cc(CCN3CCC(F)(F)CC3)cc2F)S(=O)(=O)N1` [Example 98], for which the IC50 in test [1] amounted to 5 nM; in test [2] (Mus musculus, B16-F10, 48 h), 1050 nM.

As for `O=C1CN(c2c(O)cc(CCN3CCC4(CCC4)C3)cc2F)S(=O)(=O)N1` [Example 99], the IC50 in test [1] stood at 2 nM; in test [2] (Mus musculus, B16-F10, 48 h), 183 nM.

On to `O=C1CN(c2c(O)cc(CCN3CCNCC3)cc2F)S(=O)(=O)N1` [Example 100], for which the IC50 in test [1] was 5 nM; in test [2] (Mus musculus, B16-F10, 48 h) it was 51000 nM.

Regarding `O=C1CN(c2c(O)cc(CCN3CCC(O)CC3)cc2F)S(=O)(=O)N1` [Example 101], the IC50 in test [1] was 2 nM; in test [2] (Mus musculus, B16-F10, 48 h), 1690 nM.

On to `O=C1CN(c2c(O)cc(CCN3CCC(CO)C3)cc2F)S(=O)(=O)N1` (centres unmarked) [Example 102], for which the IC50 is 2 nM in test [1] and 605 nM in test [2] (Mus musculus, B16-F10, 48 h).

With `O=C1CN(c2c(O)cc(CCN3CCC(O)C3)cc2F)S(=O)(=O)N1` (centres unmarked) [Example 103], the IC50 was found to be 50 nM in test [1] and 13200 nM in test [2] (Mus musculus, B16-F10, 48 h).

For the compound `O=C1CN(c2c(O)cc(CCN3CCC4(CCC4)CC3)cc2F)S(=O)(=O)N1` [Example 105], the IC50 was determined as 3 nM in test [1] and 219 nM in test [2] (Mus musculus, B16-F10, 48 h).

As for `CC1(F)CCN(CCc2cc(O)c(N3CC(=O)NS3(=O)=O)c(F)c2)C1` (centres unmarked) [Example 106], the IC50 in test [1] came out at 2 nM; in test [2] (Mus musculus, B16-F10, 48 h), 256 nM.

For `O=C1CN(c2c(O)cc(CCN3CCC4(CC3)CC4)cc2F)S(=O)(=O)N1` [Example 107], the IC50 in test [1] stood at 2 nM; in test [2] (Mus musculus, B16-F10, 48 h), 256 nM.

In the case of `CC1(C)CCN(CCc2cc(O)c(N3CC(=O)NS3(=O)=O)c(F)c2)C1` [Example 108], the IC50 is 2 nM in test [1] and 129 nM in test [2] (Mus musculus, B16-F10, 48 h).

With `CC[C@H]1CCN(CCc2cc(O)c(N3CC(=O)NS3(=O)=O)c(F)c2)C1` [Example 109], the IC50 in test [1] amounted to 3 nM; in test [2] (Mus musculus, B16-F10, 48 h), 162 nM.

`CC[C@@H]1CCN(CCc2cc(O)c(N3CC(=O)NS3(=O)=O)c(F)c2)C1` [Example 110]: the IC50 was 2 nM in test [1] and 127 nM in test [2] (Mus musculus, B16-F10, 48 h).

As to `O=C1CN(c2c(O)cc(CCN3CC4(CCCC4)C3)cc2F)S(=O)(=O)N1` [Example 114], the IC50 in test [1] was 7 nM; in test [2] (Mus musculus, B16-F10, 48 h), 371 nM.

Turning to `O=C1CN(c2c(O)cc(CCN3CCC4(CCCCC4)C3)cc2F)S(=O)(=O)N1` [Example 116], the IC50 in test [1] was 2 nM; in test [2] (Mus musculus, B16-F10, 48 h) it was 172 nM.

For `CC(C)(C)C1CCN(CCc2cc(O)c(N3CC(=O)NS3(=O)=O)c(F)c2)CC1` [Example 118], the IC50 in test [1] was determined as 3 nM; in test [2] (Mus musculus, B16-F10, 48 h), 3220 nM.

Regarding `O=C1CN(c2c(O)cc(CCN3CCC(C4CCC4)CC3)cc2F)S(=O)(=O)N1` [Example 121], the IC50 is 2 nM in test [1] and 2830 nM in test [2] (Mus musculus, B16-F10, 48 h).

For `O=C1CN(c2c(O)cc(CCN3CC4(CCC4)C3)cc2F)S(=O)(=O)N1` [Example 124], the IC50 is 2 nM in test [1] and 943 nM in test [2] (Mus musculus, B16-F10, 48 h).

Consider `CCC1CCN(CCc2cc(O)c(N3CC(=O)NS3(=O)=O)c(F)c2)CC1` [Example 125], for which the IC50 came out at 2 nM in test [1] and 3090 nM in test [2] (Mus musculus, B16-F10, 48 h).

Take `CCC1CN(CCc2cc(O)c(N3CC(=O)NS3(=O)=O)c(F)c2)C1` [Example 126]: the IC50 in test [1] stood at 3 nM; in test [2] (Mus musculus, B16-F10, 48 h), 775 nM.

On to `CC(C)(C)C1CN(CCc2cc(O)c(N3CC(=O)NS3(=O)=O)c(F)c2)C1` [Example 129], for which the IC50 came to 2 nM in test [1] and 660 nM in test [2] (Mus musculus, B16-F10, 48 h).

Take `O=C1CN(c2c(O)cc(CCN3CCC(CC(F)(F)F)C3)cc2F)S(=O)(=O)N1` (centres unmarked) [Example 130]: the IC50 in test [1] was determined as 1 nM; in test [2] (Mus musculus, B16-F10, 48 h), 208 nM.

Take `O=C1CN(c2c(O)cc(CCN3CCC4(CC4)C3)cc2F)S(=O)(=O)N1` [Example 131]: the IC50 in test [1] turned out to be 1 nM; in test [2] (Mus musculus, B16-F10, 48 h), 489 nM.

`CC(C)C1CN(CCc2cc(O)c(N3CC(=O)NS3(=O)=O)c(F)c2)C1` [Example 132]: the IC50 in test [1] worked out at 3 nM; in test [2] (48 hours), 579 nM.

Turning to `O=C1CN(c2c(O)cc(CCN3CC4CCC3C4)cc2F)S(=O)(=O)N1` (centres unmarked) [Example 133], the IC50 stood at 3 nM in test [1] and 1040 nM in test [2] (Mus musculus, B16-F10, 48 h).

For the compound `C[C@@H]1CCN(CCc2cc(O)c(N3CC(=O)NS3(=O)=O)c(F)c2)C1` [Example 138], the IC50 in test [1] was 2 nM; in test [2] (Mus musculus, B16-F10, 48 h), 406 nM.

As to `C[C@H]1CCN(CCc2cc(O)c(N3CC(=O)NS3(=O)=O)c(F)c2)C1` [Example 139], the IC50 in test [1] turned out to be 2 nM; in test [2] (Mus musculus, B16-F10, 48 h) it was 509 nM.

Regarding `O=C1CN(c2c(O)cc(CCN3CC(CF)C3)cc2F)S(=O)(=O)N1` [Example 141], the IC50 in test [1] is 3 nM; in test [2] (Mus musculus, B16-F10, 48 h), 370 nM.

Turning to `O=C1CN(c2c(O)cc(CCN3CC(CC(F)(F)F)C3)cc2F)S(=O)(=O)N1` [Example 142], the IC50 in test [1] was 3 nM; in test [2] (Mus musculus, B16-F10, 48 h), 542 nM.
